Measurements published in US20030113369A1, “Liposomes with enhanced circulation time and method of treatment” (priority 1991, published 2003).
“Also recorded” adds a separate entry of the source. Counter-ions that a name gives are not always drawn.

Key:
C-26 colon carcinoma [1] = assay: Tumor treatment, subcutaneous colon carcinoma; format: in vivo, mice; settings: for survival of the animals at 120 days following tumor implantation: 6 mg/kg on days 1, 8 and 15, seven animals per group; for tumor growth compared with the saline control: IV on days 1, 8 and 15, FIG. 15A
Protocol: Vesicle-forming lipids containing PEG-PE, PG, PHEPC, and cholesterol and α-TC in a mole ratio of 0.15:0.3:1.85:1:0.2 were dissolved in chloroform to a final lipid concentration of 25 μmol phospholipid/ml. The lipid mixture was dried into a thin film under reduced pressure. […] The MLV suspension was frozen in a dry ice acetone bath and thawed three times and sized to 80-100 nm by extrusion as detailed above. An ammonium ion gradient was created substantially as described in Example 10. The liposomes were loaded with epirubicin, and free (unbound drug) removed also as described in Example 10 for doxorubicin. […] Epirubicin HCl and doxorubicin HCL, the commercial products, were obtained from the hospital pharmacy.
About 10^6 cells C-26 colon carcinoma cells were injected subcutaneously into three groups of 35 mice. The groups were subdivided into five 7-animal subgroups.
Each group was followed for 28 days. Tumor size was measured for each animal on days 5, 7, 12, 14, 17, 21, 24 and 28. The growth of the tumor in each subgroup (expressed as the mean tumor size of the individual animals) at each time point is plotted in FIG. 15A.
The same number of animals were inoculated with the same number of tumor cells as described above.

[2] = system: syngeneic MC2 mouse mammary carcinoma; assay: Tumor treatment, breast carcinoma; format: in vivo, C3H/He mice; settings: 6 mg/kg IV on days 1, 8 and 15; FIG. 21
Protocol: Ten-week-old female C3H/He mice were randomized into three groups of 20 animals and each received bilateral subcutaneous implants of 10^5˜10^6 syngeneic MC2 mouse mammary carcinoma cells on day 0. Intravenous injections of 6 mg/kg of free epirubicin, PEG liposomes with entrapped epirubicin (6 mg/kg) or a saline control were given on days 1, 8 and 15. Weights of the animals were taken on days 0, 7, 14, 22 and 24.
Results of the study are plotted in FIG. 21, where mean tumor size for the three treatment groups is as indicated, expressed as mean tumor size (in mm^3×10^−1) for all three treatment groups. […] At day 24 the statistical confidence between the liposome and free drug groups is extremely high (+=9.9, p<0.0000001 using the Student's +tests).

Maximum tolerated dose = assay: Maximum tolerated dose
Protocol: Solutions of free doxorubicin HCl, epirubicin HCl were obtained as above. PEG-liposome formulations containing either doxorubicin or epirubicin, at a drug concentration of 70-90 μg compound/μmole liposome lipid, were prepared as described in Example 10. Conventional liposomes (no PEG-derivatized lipid) were loaded with doxorubicin to a drug concentration of […] lipid using standard techniques.
Each of the five formulations was administered to 35 mice, at a dose between 10 and 40 mg drug/kg body weight, in 5 mg/kg increments, with five receiving each dosage.

[3] = Multidose toxicity of epirubicin: weight change and heart histology; format: in vivo, mice
C-26 colon carcinoma [4] = settings: cited from earlier work
[5] = system: syngeneic mammary carcinoma cells (MC2); settings: cited from earlier work
[6] = Survival at 120 days following a single injection
J-6456 lymphoma [7] = assay: Tissue distribution of doxorubicin, subcutaneous tumor; format: in vivo, mice; settings: heart, muscle, tumor at 4, 24, 48 hours; 10 mg/kg IV
Protocol: That liposome delivery to the tumor is required for selective drug targeting can be seen from the study reported in Example 12. Here mice were inoculated subcutaneously with the J-6456 lymphoma which formed a solid tumor mass of about 1 cm^3 after one-two weeks. The animals were then injected either with free doxorubicin or doxorubicin loaded into PEG-liposomes at a dose of 10 mg drug per kg body weight. The tissue distribution (heart, muscle, and tumor) of the drug was then assayed at 4, 24, and 48 hours after drug administration.
Two groups of twelve mice were injected subcutaneously with 10^6 J-6456 tumor cells. After 14 days the tumors had grown to about 1 cm^3 in size in the subcutaneous space and the animals were injected IV (tail vein) with 10 mg/kg doxorubicin as free drug (group 1) or encapsulated in PEG liposomes (group 2). At 4, 24, and 48 hours after drug injection, four animal in each group were sacrificed, and sections of tumor, heart, and muscle tissue were excised. Each tissue was weighed, then homogenized and extracted for determination of doxorubicin concentration using a standard florescence assay procedure Gabizon, 1989). The total drug measured in each homogenate was expressed as μg drug per gram tissue.

J-6456 lymphoma [8] = assay: Tumor treatment, survival after IP lymphoma implantation; format: in vivo, mice; settings: 10 mg/kg IV
Protocol: A doxorubicin HCl solution to be used as the free drug control was obtained from a hospital pharmacy. A total of 30 mice were injected IP with 10^6 J-6456 lymphoma cells. The animals were divided into three 10-animal groups, each of which was injected IV with 0.4 ml of either saline vehicle, 10 mg/kg doxorubicin solution or the doxorubicin-loaded liposomes at 10 mg/kg. Each group was followed for 100 days for number of surviving animals. The percent survivors for each treatment group is plotted in FIG. 16.

Blood biochemistry = format: in vivo, mice; settings: pooled serum
Protocol: Blood chemistries were measured in groups of both male and female mice receiving the same dose and injection schedule of free or PEG-liposomes with entrapped epirubicin as above.

[9] = Multidose toxicity of doxorubicin: weight change and histopathology; format: in vivo, mice; settings: four weekly 10 mg/kg, sacrificed day 29
Protocol: FIG. 20 is a plot of weight changes in normal Sabra male mice untreated (open circles) or treated with four weekly intravenous injections on days […] with a 10 mg/kg dose of either free doxorubicin (open triangles) or PEG liposomes with entrapped doxorubicin (open squares); and
Similar reduced toxicity results were obtained when free doxorubicin was compared with PEG liposomes with entrapped doxorubicin, in groups of mice receiving four weekly injections of 10 mg/kg doxorubicin on days 1, 8, 15 and 22.

C-26 colon carcinoma [10] = assay: Tumor treatment with conventional doxorubicin liposomes; format: in vivo, mice; settings: 10 mg/kg on days 8, 15 and 22; FIG. 17
Protocol: Conventional doxorubicin liposomes (L-DOX) were prepared according to published methods (Gabizon, 1988). Briefly, a mixture of eggPG, Egg,PC, cholesterol and α-TC in a mole ratio of 0.3:1.4:1:0.2 was made in chloroform. The solvent was removed under reduced presssure and the dry lipid film hydrated with a solution of 155 mM NaCl containing 2-5 mg doxorubicin HCl. The resulting MLV preparation was down-sized by extrusion through a series of polycarbonate membranes to a final size of about 250 nm. The free (unentrapped) drug was removed by passing the suspension over a bed of Dowex resin. The final doxorubicin concentration was about […] lipid.
Three groups of 7 mice were inoculated subcutaneously with 10^5-10^6 C-26 colon carcinoma cells as detailed in Example 15. The animals were divided into three, 7-animal treatment groups, one of which receivd 0.5 ml of saline vehicle as a control. The other two groups were treated with doxorubicin either as a free drug solution or in the form of L-DOX liposomes at a dose of 10 mg/kg. The treatments were given on days 8, 15 and 22 after tumor cell inoculation. Tumor size was measured on the days treatments were given and day 28.

[11] = dog, in vivo
Protocol: (§1) The PEG-PE lipids were formulated with hydrogenated soy bean PC(HSPC) and cholesterol, in a mole ratio of 0.15:1.85:1 (PEG-Dox).
(§2) A doxorubicin HCl solution (the marketed product, Free Dox) was obtained from the hospital pharmacy.
(§3) Free DOX, PEG-Dox and HPI-Dox were diluted to the same concentration (1.8 mg/ml) using unbuffered 5% glucose on the day of injection. Dogs were randomized into three groups (2 females, 1 male) and weighed. An 18 gauge Venflon IV catheter was inserted in a superficial limb vein in each animal. The drug and liposome suspensions were injected by quick bolus (15 seconds). Four ml blood samples were before injection and at 5, 10, 15, 30, 45 min, 1, 2, 4, 6, 8, 10, 12, 24, 48 and 72 hours post injection. In the liposome groups blood was also drawn after 96, 120, 144, and 168 hours. Plasma was separated from the formed elements of the whole blood by centrifugation and doxorubicin concentrations assayed by standard fluorescence techniques. The amount of doxorubicin remaining in the blood was expressed as a percentage of peak concentration of labeled drug, measured immediately after injection.

[12] = Plasma kinetics of free and liposomal doxorubicin; settings: dogs
Protocol: as §1, §2, §3

J-6456 lymphoma [13] = assay: Tissue distribution of doxorubicin, ascites tumor; settings: for Plasma: 10 mg/kg doxorubicin IV; for Plasma / Ascites Tumor (tumor & fluid) / Heart / Liver: value (SD); for Ascites Tumor (tumor & fluid) / Heart / Liver: 10 mg/kg
Protocol: Two groups of 15 mice were injected interperitoneally with 10^6 J-6456 lymphoma cells. The tumor was allowed to grow for one-two weeks at which time 5 ml of ascites fluid had accumulated. The mice were then injected IV with 10 mg/kg doxorubicin either in free drug form (group 1) or entrapped in PEG liposomes as described in Example 11 (group 2). Ascites fluid was withdrawn from three animals in each group at 1, 4, 15, 24 and 48 hours post treatment. The ascites tumor was further fractionated into cellular and fluid components by centrifugation (15 min. 5000 rpm). Free and liposome-bound drug in the supernatant was determined by passing the fluid through a Dowex 50-WX-4 resin, as above, to remove free drug. The doxorubicin concentrations in the ascites fluid, tumor cells, supernatant, and resin-treated supernatant were then determined, and from these values, μg doxorubicin/gram tissue was calculated.
In a similar experiment two groups of twelve mice were implanted IP with the J-6456 lymphoma and the tumor was allowed to establish as described above. Once the ascites tumor had reached about 5 ml, one group of animals was injected with 10 mg/kg free doxorubicin and the other group with 10 mg/kg doxorubicin entrapped in PEG liposomes. At 4, 24 and 48 hours post treatment ascites fluid and blood samples were withdrawn from four animals in each group and the animals were sacrificed. Sections of liver and heart tissue were excised from each animal, homogenized and drug concentration assayed as described above. Plasma was separated from whole blood by centrifugation and drug concentration assayed as stated above. Doxorubicin concentration in the ascites fluid was also measured. Plasma and ascites fluid levels are expressed as pg doxorubicin per ml and liver and heart tissue values as pg doxorubicin per gram tissue. The standard deviations for each measurement is shown in parentheses.

COc1cccc2c1C(=O)c1c(O)c3c(c(O)c1C2=O)C[C@@](O)(C(=O)CO)C[C@@H]3O[C@H]1C[C@H](N)[C@@H](O)[C@H](C)O1 [EPI, Epirubicin HCl]
survival of the animals at 120 days following tumor implantation (C-26 colon carcinoma [1]): none | tumor growth compared with the saline control (C-26 colon carcinoma [1]): neither free doxorubicin nor free epirubicin at 6 mg/kg significantly suppressed tumor growth | tumor response, delayed treatment (C-26 colon carcinoma [1]; days 3, 10, 17 or days 10, 17, 24, 6 mg/kg (liposomes also 9 mg/kg), FIGS. 15B, 15C, 18, listed as free epirubicin, HCl): only a modest retardation in the rate of tumor growth; also recorded: no tumor regression was seen | tumor growth [2]: the tumor grows quickly | MTD at 14 days (Maximum tolerated dose; mouse, in vivo): 10 mg/kg | weight change ([3]; three weekly injections from day 3, 26-day period, C-26 tumor-bearing mice, FIG. 19): lost weight rapidly starting about day 10 | histological examination of heart muscle tissue ([3]; three weekly injections, 6 mg/kg free, 6 or 9 mg/kg liposomal): significant cardiomyopathy was observed | in vitro activity against C-26 colon carcinoma (C-26 colon carcinoma [4]): show in vitro activity against this tumor | in vitro sensitivity of MC2 cells [5]: sensitive in vitro | Surviving mice at 120 days ([6]; 3 mg/kg): 5/5 | Surviving mice at 120 days ([6]; 6 mg/kg): 5/5 | Surviving mice at 120 days ([6]; 9 mg/kg): 2/5 | Surviving mice at 120 days ([6]; 12 mg/kg): 0/5 | Surviving mice at 120 days ([6]; 15 mg/kg): 0/5 | dose at which 2/5 animals died ([6]; 120 days): 9 mg/kg

COc1cccc2c1C(=O)c1c(O)c3c(c(O)c1C2=O)C[C@@](O)(C(=O)CO)C[C@@H]3O[C@H]1C[C@H](N)[C@H](O)[C@H](C)O1.Cl [Free DOX, Doxorubicin HCl]
selective drug accumulation in the tumor (J-6456 lymphoma [7]): No selective drug accumulation into the tumor occurred | survival of the animals at 120 days following tumor implantation (C-26 colon carcinoma [1]): none | tumor growth compared with the saline control (C-26 colon carcinoma [1]): neither free doxorubicin nor free epirubicin at 6 mg/kg significantly suppressed tumor growth | survival relative to the saline group (J-6456 lymphoma [8]): little improvement in survival over the saline group | Maximum Tolerated Dose (Maximum tolerated dose; in mice, highest dose without death or dramatic weight loss within 14 days): 10 to 12 mg/kg | Albumin (Blood biochemistry; females): 31 g/1 | Alk. Phos. (Blood biochemistry; females): 162 μ/1 | Calcium (Blood biochemistry; females): 2.9 mmol/1 | Chloride (Blood biochemistry; females): 118 mmol/1 | Cholesterol (Blood biochemistry; females): 4.7 mmol/1 | Creatinine (Blood biochemistry; females): 123 μmol/1 | Glucose (Blood biochemistry; females): 2.9 mmol/1 | Phosphorus (Blood biochemistry; females): 3.4 mmol/1 | Sodium (Blood biochemistry; females): 154 mmol/1 | Total protein (Blood biochemistry; females): 57 g/1 | Urea (Blood biochemistry; females): 12.5 mmol/1 | Uric acid (Blood biochemistry; females): 350 μmol/1 | Albumin (Blood biochemistry; males): 21 g/1 | Alk. Phos. (Blood biochemistry; males): 129 μ/1 | Bilirubin (Blood biochemistry; males): 0 μmol/1 | Calcium (Blood biochemistry; males): 1.6 mmol/1 | Chloride (Blood biochemistry; males): 117 mmol/1 | Cholesterol (Blood biochemistry; males): 6.0 mmol/1 | Creatinine (Blood biochemistry; males): 37 μmol/1 | Glucose (Blood biochemistry; males): 1.3 mmol/1 | Phosphorus (Blood biochemistry; males): 5.2 mmol/1 | Sodium (Blood biochemistry; males): 150 mmol/1 | Total protein (Blood biochemistry; males): 39 g/1 | Urea (Blood biochemistry; males): 12.4 mmol/1 | Uric acid (Blood biochemistry; males): 333 μmol/1 | histopathology, gonads [9]: lack of follicular maturation and of spermatogenesis | histopathology, heart [9]: mild to moderate myolysis was seen in all (13) mice | histopathology, kidney [9]: advanced signs of nephrosis | histopathology, lungs, adrenals, small bowel, pancreas, urinary bladder [9]: No damage was observed | histopathology, spleen [9]: reversible atrophy of the red and white pulp | histopathology, liver ([9]; listed as free doxorubicin, HCl): hematopoiesis foci were present in both groups; also recorded: microcytosis was also observed | tumor growth (C-26 colon carcinoma [10]): suppressed tumor growth to a modest extent compared with the saline control | AUC [11]: 7.1 to 10.0 mg/L | clearance [11]: 10 to 15 mL/min | Kinetic Pattern ([11]; iv): Bi-exp. | Peak Conc. ([11]; iv): 0.4 to 2.2 mg/L | in vitro activity against C-26 colon carcinoma (C-26 colon carcinoma [4]): show in vitro activity against this tumor | in vitro sensitivity of MC2 cells [5]: sensitive in vitro | t1/2 [12]: 1.9 to 3.3 h | Tumor/Heart (J-6456 lymphoma [13]; 4 hours): 0.0052 | Plasma (J-6456 lymphoma [13]; 4 hours): 0.9 (0.0) μg/ml | Ascites Tumor (tumor & fluid) (J-6456 lymphoma [13]; 4 hours): 0.3 (0.1) μg/ml | Heart (J-6456 lymphoma [13]; 4 hours): 5.7 (3.4) μg/gram | Liver (J-6456 lymphoma [13]; 4 hours): 8.1 (1.4) μg/gram | Tumor/Heart (J-6456 lymphoma [13]; 24 hours): 0.04 | Plasma (J-6456 lymphoma [13]; 24 hours): 0.0 µg/mL | Ascites Tumor (tumor & fluid) (J-6456 lymphoma [13]; 24 hours): 0.1 (0.1) μg/ml | Heart (J-6456 lymphoma [13]; 24 hours): 2.5 (0.3) μg/gram | Liver (J-6456 lymphoma [13]; 24 hours): 6.2 (4.8) μg/gram | Tumor/Heart (J-6456 lymphoma [13]; 48 hours): 0.266 | Plasma (J-6456 lymphoma [13]; 48 hours): 0.0 µg/mL | Ascites Tumor (tumor & fluid) (J-6456 lymphoma [13]; 48 hours): 0.4 (0.3) μg/ml | Heart (J-6456 lymphoma [13]; 48 hours): 1.5 (0.6) μg/gram | Liver (J-6456 lymphoma [13]; 48 hours): 6.1 (3.6) μg/gram
